How the values were obtained:
Format in all cases: in vivo
[1] = system: Lung cancer cell line COR-L23 cells; experiment: Antitumor test, mouse subcutaneous transplantation model, COR-L23; conditions: COR-L23 in nude mice, 4 consecutive days, tumor measured next day
Source text: (§1) In vivo test of test compound: Antitumor test using mouse subcutaneous transplantation model
Lung cancer cell line COR-L23 cells were dissociated from a culture flask by trypsin treatment, then suspended in an RPMI1640 medium containing 10% FBS, and then centrifuged to remove the supernatant. The cells were washed with this medium twice and then suspended in PBS. The cell suspension was subcutaneously transplanted at a dose of 5×10^6 cells/mouse to the right axillary regions of 6-week-old nude mice (BALB/cAJc1-nu/nu, CLEA Japan, Inc.). The test was conducted by using cancer-bearing mice having an estimated tumor volume (major axis×minor axis×minor axis/2) of 100 to 150 mm3 and grouping the cancer-bearing mice without significant difference in average estimated tumor volume from a negative control group. The compound of Example 113 was suspended in solvent (EtOH/DMA/Solutol HS-15/PEG400/5% HMPC). The suspension was orally administered to each mouse once a day (QD) at a dose of 75, 150, or 300 mg/kg for 4 consecutive days. On the next day, the tumor sizes were measured.
(§2) The rate of tumor growth inhibition was also calculated in this test according to the following expression and is shown in a table.
(§3) Rate of tumor growth inhibition (%)=100−(Average value of the tumor volumes of the test compound administration group)/(Average value of the tumor volumes of the vehicle administration group)×100.

[2] = system: Liver cancer cell line HUH-7 cells; experiment: Antitumor test, mouse subcutaneous transplantation model, HUH-7; conditions: HUH-7 in nude mice, 4 consecutive days, tumor measured three days after final administration
Source text: as §1
Liver cancer cell line HUH-7 cells were dissociated from a culture flask by trypsin treatment, then suspended in an RPMI1640 medium containing 10% FBS, and then centrifuged to remove the supernatant. The cells were washed with PBS twice and then suspended in BD Matrigel Basement Membrane Matrix (manufactured by BD Biosciences). The cell suspension was subcutaneously transplanted at a dose of 5×10^6 cells/mouse to the right axillary regions of 6-week-old nude mice (CAnN.Cg-Foxn1[nu]/CrlCrlj[Foxn1nu/Foxn1nu], Charles River Laboratories Japan, Inc.). The test was conducted by using cancer-bearing mice having an estimated tumor volume (major axis×minor axis×minor axis/2) of 70 to 180 mm3 and grouping the cancer-bearing mice without significant difference in average estimated tumor volume from a negative control group. The compound of Example 113 was suspended in solvent (EtOH/DMA/Solutol HS-15/PEG400/5% HMPC). The suspension was orally administered to each mouse twice a day (BID) at a dose of 75 or 150 mg/kg for 4 consecutive days. Three days after the final administration date, the tumor sizes were measured.
The rate of tumor growth inhibition was also calculated in this test according to the following expression and is shown in a table. […]

[3] = system: Skin cancer cell line A375 cells; experiment: Antitumor test, mouse subcutaneous transplantation model, A375; conditions: A375 in nude mice, 4 consecutive days, tumor measured next day
Source text: as §1
Skin cancer cell line A375 cells were dissociated from a culture flask by trypsin treatment, then suspended in a DMEM medium (Life Technologies Corp.) containing 10% FBS, and then centrifuged to remove the supernatant. The cells were washed with this medium twice and then suspended in PBS. The cell suspension was subcutaneously transplanted at a dose of 3×10^6 cells/mouse to the right axillary regions of 6-week-old nude mice (BALB/cAJc1-nu/nu, CLEA Japan, Inc.). The test was conducted by using cancer-bearing mice having an estimated tumor volume (major axis×minor axis×minor axis/2) of 75 to 150 mm3 and grouping the cancer-bearing mice without significant difference in average estimated tumor volume from a negative control group. The compound of Example 113 was suspended in solvent (EtOH/DMA/Solutol HS-15/PEG400/5% HMPC). The suspension was orally administered to each mouse twice a day (BID) at a dose of 50, 100, or 200 mg/kg for 4 consecutive days. On the next day, the tumor sizes were measured.
as §2, §3

[4] = system: Lymphoma cell line RAMOS cells; experiment: Antitumor test, mouse subcutaneous transplantation model, RAMOS; conditions: RAMOS in SCID mice, 4 consecutive days, tumor measured next day
Source text: as §1
Lymphoma cell line RAMOS cells were suspended in a culture flask and then centrifuged to remove a supernatant. The cells were washed with PBS (phosphate buffered saline, Life Technologies Corp.) twice and then suspended in PBS. The cell suspension was subcutaneously transplanted at a dose of 1×10^7 cells/mouse to the right axillary regions of 6-week-old SCID mice (FOX CHASE SCID C.B.17/Icr-scid/scidJcl, CLEA Japan, Inc.). The test was conducted by using cancer-bearing mice having an estimated tumor volume (major axis×minor axis×minor axis/2) of 200 to 350 mm3 and grouping the cancer-bearing mice without significant difference in average estimated tumor volume from a negative control group. The compound of Example 113 was suspended in a solvent (EtOH/DMA/Solutol HS-15/PEG400/5% HMPC). The suspension was orally administered to each mouse twice a day (BID) at a dose of 25, 50, 100, or 200 mg/kg for 4 consecutive days. On the next day, the tumor sizes were measured.
as §2, §3

With CCOc1cc(F)c(Cl)cc1C(=O)NCC(C)(C)CC(=O)Nc1c(COC)n(C)n(-c2ccccc2)c1=O [Example 113, 5-Chloro-2-ethoxy-4-fluoro-N-(4-{[5-(methoxymethyl)-1-methyl-3-oxo-2-phenyl-2,3-dihydro-1H-pyrazol-4-yl]amino}-2,2-dimethyl-4-oxobutyl)benzamide] the “Rate of tumor growth inhibition (%)” value ([1]; 75 mg/kg orally QD) was 39%, the “Rate of tumor growth inhibition (%)” value ([1]; 150 mg/kg orally QD) was 52% and the “Rate of tumor growth inhibition (%)” value ([1]; 300 mg/kg orally QD) was 81%. The “Rate of tumor growth inhibition (%)” value ([2]; 75 mg/kg orally BID) was 46%, the “Rate of tumor growth inhibition (%)” value ([2]; 150 mg/kg orally BID) was 63% and the “Rate of tumor growth inhibition (%)” value ([3]; 50 mg/kg orally BID) was 19%. For the same molecule, the “Rate of tumor growth inhibition (%)” value ([3]; 100 mg/kg orally BID) was 61%, the “Rate of tumor growth inhibition (%)” value ([3]; 200 mg/kg orally BID) was 86% and the “Rate of tumor growth inhibition (%)” value ([4]; 25 mg/kg orally BID) was 35%. The “Rate of tumor growth inhibition (%)” value ([4]; 50 mg/kg orally BID) was 56%, the “Rate of tumor growth inhibition (%)” value ([4]; 100 mg/kg orally BID) was 72% and the “Rate of tumor growth inhibition (%)” value ([4]; 200 mg/kg orally BID) was 75%.

— patent US20170107207A1, “AMINOPYRAZOLONE DERIVATIVE” (DAIICHI SANKYO COMPANY, LIMITED, priority 2014, published 2017)
